# Experimental data as given in ChEMBL document CHEMBL5096227, “Discovery of Ervogastat (PF-06865571): A Potent and Selective Inhibitor of Diacylglycerol Acyltransferase 2 for the Treatment of Non-alcoholic Steatohepatitis” (J Med Chem, 2022).
# Tests used:
# [1] = Apparent permeability in MDCK-II cells; format: ADME, cell-based, Canis lupus familiaris; settings: dog
# [2] = Apparent intrinsic clearance in cryopreserved human hepatocytes measured per million cells at 1 uM incubated for 4 hrs by LC-MS/MS analysis; format: ADME, cell-based, Hepatocyte; settings: for hepatocyte CLint at 1 µM: cryopreserved human hepatocytes, read-out: CLH
# physchem = settings: buffer, pH 7.4
# Description: Lipophilicity, logD of compound at pH 7.4 by shake flask method
# [3] = biological target: T1, Diacylglycerol O-acyltransferase 2 (Homo sapiens, UniProt Q96PD7); assay: Inhibition of human DGAT2 expressed in Sf9 insect cell membrane using [1-14C]decanoyl-CoA and 1,2-didecanoyl-sn-glycerol as substrates assessed as incorporation of [1-14C]decanoyl into triacylglycerol preincubated for 120 mins followed by substrate addition and measured after 40 mins by scintillation counting method; format: cell membranes
# T1 sequence (Q96PD7 whole entry): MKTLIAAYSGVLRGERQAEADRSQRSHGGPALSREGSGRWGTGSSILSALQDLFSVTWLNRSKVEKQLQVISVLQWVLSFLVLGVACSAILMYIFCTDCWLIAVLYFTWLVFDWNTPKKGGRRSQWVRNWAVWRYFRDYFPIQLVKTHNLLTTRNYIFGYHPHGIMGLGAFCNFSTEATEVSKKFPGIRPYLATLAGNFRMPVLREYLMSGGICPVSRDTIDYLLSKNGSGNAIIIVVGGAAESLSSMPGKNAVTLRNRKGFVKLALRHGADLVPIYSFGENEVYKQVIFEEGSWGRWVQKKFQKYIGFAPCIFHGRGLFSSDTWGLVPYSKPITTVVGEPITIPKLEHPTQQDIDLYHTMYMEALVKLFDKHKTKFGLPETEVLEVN
# [4] = Drug metabolism in cryopreserved human hepatocytes assessed as O-dearylation mediated oxidative metabolite formation at 10 uM measured for 240 mins by HPLC-UV-MS analysis; format: ADME, cell-based, Hepatocyte; settings: 4 h
# Cytochrome P450 1A2 = biological target: T2, Cytochrome P450 1A2 (Homo sapiens, UniProt P05177); assay: Reversible inhibition of CYP1A2 in pooled human liver microsomes using […] as substrate incubated for 20 mins in presence of NADPH by HPLC-MS/MS analysis; format: ADME, Microsome
# T2 sequence (P05177 whole entry): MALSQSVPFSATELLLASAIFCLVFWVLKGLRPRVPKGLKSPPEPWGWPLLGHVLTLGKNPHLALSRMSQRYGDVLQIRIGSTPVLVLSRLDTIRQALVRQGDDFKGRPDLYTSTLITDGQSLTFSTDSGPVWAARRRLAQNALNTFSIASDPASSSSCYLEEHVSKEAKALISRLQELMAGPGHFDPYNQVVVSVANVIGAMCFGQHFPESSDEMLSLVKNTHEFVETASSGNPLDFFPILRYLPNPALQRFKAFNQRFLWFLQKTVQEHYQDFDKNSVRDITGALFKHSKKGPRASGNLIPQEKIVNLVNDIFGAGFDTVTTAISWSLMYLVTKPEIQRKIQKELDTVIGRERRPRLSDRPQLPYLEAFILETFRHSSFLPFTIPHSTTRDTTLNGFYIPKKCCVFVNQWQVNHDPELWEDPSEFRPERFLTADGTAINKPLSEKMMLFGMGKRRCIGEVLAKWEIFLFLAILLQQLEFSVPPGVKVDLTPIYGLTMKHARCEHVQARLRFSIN
# [5] = Half life in human; format: ADME
# CYP3A4/5 = CYP3A4/5 (Homo sapiens, UniProt P08684+P20815); assay: Reversible inhibition of CYP3A4/5 in pooled human liver microsomes; format: ADME, Microsome
# Cytochrome P450 2C8 = biological target: T3, Cytochrome P450 2C8 (Homo sapiens, UniProt P10632); assay: Reversible inhibition of CYP2C8 in pooled human liver microsomes using desethylamodiaquine as substrate incubated for 10 mins in presence of NADPH by HPLC-MS/MS analysis; format: ADME, Microsome
# T3 sequence (P10632 whole entry): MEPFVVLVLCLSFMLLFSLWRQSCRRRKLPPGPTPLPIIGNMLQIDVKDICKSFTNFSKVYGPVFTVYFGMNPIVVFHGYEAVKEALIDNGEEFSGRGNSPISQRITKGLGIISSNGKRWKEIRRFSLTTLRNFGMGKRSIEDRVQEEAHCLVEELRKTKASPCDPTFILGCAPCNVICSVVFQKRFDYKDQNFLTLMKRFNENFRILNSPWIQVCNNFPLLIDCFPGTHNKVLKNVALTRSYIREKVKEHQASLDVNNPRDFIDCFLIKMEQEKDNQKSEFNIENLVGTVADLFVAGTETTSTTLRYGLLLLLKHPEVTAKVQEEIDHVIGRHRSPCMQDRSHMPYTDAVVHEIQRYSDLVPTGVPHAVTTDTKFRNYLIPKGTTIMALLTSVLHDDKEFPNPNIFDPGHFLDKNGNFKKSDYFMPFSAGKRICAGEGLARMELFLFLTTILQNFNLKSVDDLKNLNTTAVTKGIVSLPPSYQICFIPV
# [6] = Half life in Wistar Han rat; format: ADME; settings: in vivo
# [7] = Volume of distribution at steady state in Wistar Han rat; format: ADME; settings: in vivo, read-out: Vdss
# [8] = Drug metabolism in cryopreserved human hepatocytes assessed as oxidation of primary alcohol to carboxylic acid mediated metabolite formation at 10 uM measured for 240 mins by HPLC-UV-MS analysis; format: ADME, cell-based, Hepatocyte; settings: 4 h
# Cytochrome P450 2B6 = biological target: T4, Cytochrome P450 2B6 (Homo sapiens, UniProt P20813); assay: Reversible inhibition of CYP2B6 in pooled human liver microsomes; format: ADME, Microsome
# T4 sequence (P20813 whole entry): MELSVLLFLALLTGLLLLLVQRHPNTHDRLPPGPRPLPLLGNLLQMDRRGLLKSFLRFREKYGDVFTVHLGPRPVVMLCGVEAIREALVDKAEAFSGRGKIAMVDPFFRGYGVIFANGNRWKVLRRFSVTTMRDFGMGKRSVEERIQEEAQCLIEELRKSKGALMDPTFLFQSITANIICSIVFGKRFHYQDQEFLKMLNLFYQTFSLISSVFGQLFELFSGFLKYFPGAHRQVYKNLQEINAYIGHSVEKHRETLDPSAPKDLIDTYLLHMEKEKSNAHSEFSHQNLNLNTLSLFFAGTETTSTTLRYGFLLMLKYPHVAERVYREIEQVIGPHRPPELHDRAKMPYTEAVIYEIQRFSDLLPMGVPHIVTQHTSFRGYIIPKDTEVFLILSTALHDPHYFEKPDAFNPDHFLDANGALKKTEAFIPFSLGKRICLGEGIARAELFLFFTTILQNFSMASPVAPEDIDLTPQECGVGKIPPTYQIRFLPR
# [9] = Oral bioavailability in Wistar Han rat at 5 mg/kg; format: ADME, organism-based; settings: in vivo
# Cytochrome P450 2D6 = Cytochrome P450 2D6 (Homo sapiens, UniProt P10635); assay: Reversible inhibition of CYP2D6 in pooled human liver microsomes using dextrorphan as substrate incubated for 14 mins in presence of NADPH by HPLC-MS/MS analysis; format: ADME, Microsome
# Cytochrome P450 2C19 = Cytochrome P450 2C19 (Homo sapiens, UniProt P33261); assay: Reversible inhibition of CYP2C19 in pooled human liver microsomes using 4-Hydroxymephenytoin as substrate incubated for 20 mins in presence of NADPH by HPLC-MS/MS analysis; format: ADME, Microsome
# [10] = biological target: T5, Diacylglycerol O-acyltransferase 1 (Homo sapiens, UniProt O75907); assay: Inhibition of human DGAT1 using [1-14C]decanoyl-CoA and 1,2-didecanoyl-sn-glycerol as substrates assessed as incorporation of [1-14C]decanoyl […] preincubated for 30 mins followed by substrate addition and measured after 30 to 90 mins by scintillation counting method
# T5 sequence (O75907 whole entry): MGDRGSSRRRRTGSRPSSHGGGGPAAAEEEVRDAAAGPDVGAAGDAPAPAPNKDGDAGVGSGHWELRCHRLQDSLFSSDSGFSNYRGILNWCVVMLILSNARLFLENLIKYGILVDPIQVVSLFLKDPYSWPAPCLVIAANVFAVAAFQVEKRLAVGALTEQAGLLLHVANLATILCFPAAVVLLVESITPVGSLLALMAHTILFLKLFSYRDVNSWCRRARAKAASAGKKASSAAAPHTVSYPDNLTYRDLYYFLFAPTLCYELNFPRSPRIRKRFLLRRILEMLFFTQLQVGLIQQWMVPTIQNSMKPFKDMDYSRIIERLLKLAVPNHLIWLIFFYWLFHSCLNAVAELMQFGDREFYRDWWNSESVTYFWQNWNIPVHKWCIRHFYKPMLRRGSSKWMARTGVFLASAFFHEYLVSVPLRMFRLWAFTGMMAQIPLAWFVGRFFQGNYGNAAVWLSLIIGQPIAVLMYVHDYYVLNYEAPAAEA
# [11] = Dissociation constant, pKa of compound; format: physicochemical
# [12] = Apparent intrinsic clearance in human liver microsomes in presence of NADPH; format: ADME, Microsome; settings: read-out: CLH
# [13] = Drug metabolism in cryopreserved human hepatocytes assessed as O-deethylation mediated pyridin-3-ol metabolite formation at 10 uM measured for 240 mins by HPLC-UV-MS analysis; format: ADME, cell-based, Hepatocyte; settings: 4 h
# [14] = Plasma clearance in Wistar Han rat; format: ADME
# Cytochrome P450 2C9 = Cytochrome P450 2C9 (Homo sapiens, UniProt P11712); assay: Reversible inhibition of CYP2C9 in pooled human liver microsomes using 4-Hydroxydiclofenac as substrate incubated for 10 mins in presence of NADPH by HPLC-MS/MS analysis; format: ADME, Microsome
# [15] = Apparent permeability of compound; format: ADME; settings: not told
# [16] = Apparent intrinsic clearance in human liver microsomes; format: ADME, Microsome; settings: read-out: CLH
# [17] = Apparent intrinsic clearance in human hepatocytes measured per million cells; format: ADME, cell-based, Hepatocyte; settings: read-out: CLH
# [18] = Lipophilicity, logD of compound; format: physicochemical; settings: octanol/water
# Chain of Cytochrome P450 2D6 (P10635 whole entry): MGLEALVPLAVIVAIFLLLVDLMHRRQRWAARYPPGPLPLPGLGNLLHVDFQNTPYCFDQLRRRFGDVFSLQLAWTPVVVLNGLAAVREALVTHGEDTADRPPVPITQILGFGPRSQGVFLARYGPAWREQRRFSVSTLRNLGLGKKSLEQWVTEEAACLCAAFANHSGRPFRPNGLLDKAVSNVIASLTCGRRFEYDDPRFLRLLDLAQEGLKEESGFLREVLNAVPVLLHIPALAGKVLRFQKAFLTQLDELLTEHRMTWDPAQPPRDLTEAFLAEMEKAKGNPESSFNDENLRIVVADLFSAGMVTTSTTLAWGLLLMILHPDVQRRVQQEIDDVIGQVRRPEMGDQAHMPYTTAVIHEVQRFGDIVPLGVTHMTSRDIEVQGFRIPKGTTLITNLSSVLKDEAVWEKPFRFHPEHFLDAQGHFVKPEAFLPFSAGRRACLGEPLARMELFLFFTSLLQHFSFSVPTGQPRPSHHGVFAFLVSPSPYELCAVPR
# Chain of Cytochrome P450 2C19 (P33261 whole entry): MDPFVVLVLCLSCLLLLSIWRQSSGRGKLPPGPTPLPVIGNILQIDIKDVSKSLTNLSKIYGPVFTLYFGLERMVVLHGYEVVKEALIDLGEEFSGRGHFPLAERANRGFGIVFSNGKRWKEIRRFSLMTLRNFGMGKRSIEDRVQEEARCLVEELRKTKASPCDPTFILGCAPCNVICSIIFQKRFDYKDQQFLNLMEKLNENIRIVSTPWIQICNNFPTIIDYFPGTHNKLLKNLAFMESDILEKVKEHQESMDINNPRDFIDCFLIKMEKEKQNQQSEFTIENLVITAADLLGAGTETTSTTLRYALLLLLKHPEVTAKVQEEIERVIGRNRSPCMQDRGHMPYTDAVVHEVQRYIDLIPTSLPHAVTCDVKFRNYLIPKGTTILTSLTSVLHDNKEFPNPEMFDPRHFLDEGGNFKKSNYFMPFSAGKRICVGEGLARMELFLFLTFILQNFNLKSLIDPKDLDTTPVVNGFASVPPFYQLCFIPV
# Chain of Cytochrome P450 2C9 (P11712 whole entry): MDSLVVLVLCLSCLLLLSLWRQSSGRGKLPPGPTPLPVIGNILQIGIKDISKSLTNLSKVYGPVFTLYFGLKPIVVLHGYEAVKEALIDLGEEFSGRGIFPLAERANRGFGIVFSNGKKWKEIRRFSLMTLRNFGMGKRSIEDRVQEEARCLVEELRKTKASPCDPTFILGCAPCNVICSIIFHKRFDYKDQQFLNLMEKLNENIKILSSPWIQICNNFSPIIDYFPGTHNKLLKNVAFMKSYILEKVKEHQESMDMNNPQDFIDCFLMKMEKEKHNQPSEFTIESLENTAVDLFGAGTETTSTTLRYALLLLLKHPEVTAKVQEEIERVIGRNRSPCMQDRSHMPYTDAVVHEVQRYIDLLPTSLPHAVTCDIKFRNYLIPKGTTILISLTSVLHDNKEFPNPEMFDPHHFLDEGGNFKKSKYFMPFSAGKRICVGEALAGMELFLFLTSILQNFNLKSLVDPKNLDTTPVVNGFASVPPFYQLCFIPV
structure (smiles),measurement,setting,value
CCOc1cccnc1Oc1cncc(-c2ncc(C(=O)NC3CCOCC3)cn2)c1,Papp,"[1]; MDCK, read-out: Papp",20 ×10⁻⁶ cm/s
same,hepatocyte CLint at 1 µM,[2],7 µL/min/1e6 cells
same,logD,physchem,2.6
same,IC50,[3],353 nM
CCNC(=O)c1cnc(-c2cncc(Oc3ncccc3OCC)c2)nc1,Papp,"[1]; MDCK, read-out: Papp",15 ×10⁻⁶ cm/s
same,hepatocyte CLint at 1 µM,[2],7 µL/min/1e6 cells
same,IC50,[3],84.6 nM
CCOc1cccnc1Oc1cncc(-c2ncc(C(=O)NC(C)(C)CO)cn2)c1,Drug metabolism,[4],Metabolite_Notdetected
same,IC50,Cytochrome P450 1A2,> 30000 nM
same,half-life,[5],> 240 min
same,IC50,CYP3A4/5,> 30000 nM
same,IC50,Cytochrome P450 2C8,> 30000 nM
same,Papp,"[1]; MDCK, read-out: Papp",21 ×10⁻⁶ cm/s
same,half-life,[6],24 min
same,Vd,[7],1.2 L/kg
same,Drug metabolism,[8],Metabolite_Detected
same,IC50,Cytochrome P450 2B6,> 24000 nM
same,bioavailability,[9],29%
same,IC50,Cytochrome P450 2D6,> 30000 nM
same,IC50,Cytochrome P450 2C19,> 30000 nM
same,hepatocyte CLint at 1 µM,[2],8 µL/min/1e6 cells
same,IC50,[10],> 50000 nM
same,pKa,[11],2.5
same,microsomal CLint,[12],14 µL/min/mg
same,logD,physchem,2
same,Drug metabolism,[13],Metabolite_Detected
same,clearance,[14],57 mL/min/kg
same,IC50,[3],6.6 nM
same,IC50,Cytochrome P450 2C9,7800 nM
CCOc1ccccc1O[C@@H]1CCCN(c2ncc(C(=O)NCc3cccc(C(=O)O)c3)cn2)C1,Papp,[15],2 ×10⁻⁶ cm/s
same,microsomal CLint,[16],9 µL/min/mg
same,hepatocyte CLint,[17],< 12 µL/min/1e6 cells
same,logD,[18],0.7
CCOc1cccnc1Oc1cncc(-c2ncc(C(=O)NC(C)(C)CS(C)(=O)=O)cn2)c1,Papp,"[1]; MDCK, read-out: Papp",15 ×10⁻⁶ cm/s
same,hepatocyte CLint at 1 µM,[2],8 µL/min/1e6 cells
same,logD,physchem,1.9
CCOc1ccccc1O[C@@H]1CCCN(c2ncc(C(=O)NC(C)(C)CO)cn2)C1,Papp,"[1]; MDCK, read-out: Papp",19 ×10⁻⁶ cm/s
same,microsomal CLint,[12],121 µL/min/mg
same,logD,physchem,2.8
CCOc1cccnc1Oc1cncc(-c2ncc(C(=O)N[C@@H]3CCOC3)cn2)c1,Papp,"[1]; MDCK, read-out: Papp",14 ×10⁻⁶ cm/s
same,hepatocyte CLint at 1 µM,[2],5 µL/min/1e6 cells
same,logD,physchem,1.9
CCOc1cccnc1O[C@@H]1CCCN(c2ncc(C(=O)NC(C)(C)CO)cn2)C1,microsomal CLint,[12],108 µL/min/mg
same,logD,physchem,1.8
same,IC50,[3],31.8 nM
CCOc1cccnc1Oc1cncc(-c2ncc(C(=O)NC3CC(=O)N(C)C3)cn2)c1 (racemic),Papp,"[1]; MDCK, read-out: Papp",1 ×10⁻⁶ cm/s
same,hepatocyte CLint at 1 µM,[2],< 3 µL/min/1e6 cells
same,logD,physchem,1.7
same,IC50,[3],501 nM
CCOc1cccnc1Oc1cncc(-c2ncc(C(=O)NC3CCCOC3)cn2)c1 (racemic),Papp,"[1]; MDCK, read-out: Papp",23 ×10⁻⁶ cm/s
same,hepatocyte CLint at 1 µM,[2],11 µL/min/1e6 cells
same,logD,physchem,2.2
same,IC50,[3],11.5 nM
CCOc1cccnc1Oc1cncc(-c2ncc(C(=O)NC3CCS(=O)(=O)C3)cn2)c1 (racemic),Papp,"[1]; MDCK, read-out: Papp",5 ×10⁻⁶ cm/s
same,hepatocyte CLint at 1 µM,[2],5 µL/min/1e6 cells
same,logD,physchem,1.6
CCOc1cccnc1Oc1cncc(-c2ncc(C(=O)NC3(CO)CCOC3)cn2)c1 (stereo in doubt; 4),Papp,"[1]; MDCK, read-out: Papp",4 ×10⁻⁶ cm/s
same,hepatocyte CLint at 1 µM,[2],< 3 µL/min/1e6 cells
same,logD,physchem,1.6
CCOc1cccnc1Oc1cncc(-c2ncc(C(=O)NC3(CO)CCOC3)cn2)c1 (stereo in doubt; 5),Papp,[1]; mdck-ii,3 10^-6 cm/s
same,CLH,"[2]; hepatocytes, 4 h, 1 µM",< 4 µL/min
